From paper PMC4227753, “Mycobacterium smegmatis DinB2 misincorporates deoxyribonucleotides and ribonucleotides during templated synthesis and lesion bypass” (Nucleic Acids Research, 2014)

Target: T1, DinB2 (Mycolicibacterium smegmatis, UniProt A0QR77)
T1 construct: gene dinB
Assay: single-turnover primer extension, kobs vs [NTP], one-site fit
Type: biochemical
Details: 5 mM MgCl2, 10 mM Tris-HCl pH 7.5, 37 C, 1 uM DinB2, 50 nM 13-mer/18-mer primer-template

T1 sequence (A0QR77 entry or part of it): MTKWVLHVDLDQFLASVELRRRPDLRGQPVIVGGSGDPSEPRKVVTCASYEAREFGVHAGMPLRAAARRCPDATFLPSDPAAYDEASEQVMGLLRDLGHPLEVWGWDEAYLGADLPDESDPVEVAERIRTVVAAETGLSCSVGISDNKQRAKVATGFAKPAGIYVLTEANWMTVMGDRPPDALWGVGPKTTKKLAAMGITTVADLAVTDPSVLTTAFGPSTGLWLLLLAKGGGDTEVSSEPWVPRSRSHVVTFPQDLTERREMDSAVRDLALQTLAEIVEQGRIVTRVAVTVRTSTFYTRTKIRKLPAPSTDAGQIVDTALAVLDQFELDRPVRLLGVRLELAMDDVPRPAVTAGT

Compound	Kd (mispair: opposite template dT (oligo-dT5 tail)) [µM]	Kd (mispair: opposite template dC (oligo-dC5 tail)) [µM]
Nc1nc2c(ncn2[C@@H]2O[C@H](COP(=O)(O)OP(=O)(O)OP(=O)(O)O)[C@@H](O)[C@H]2O)c(=O)[nH]1 [GTP]	386	
O=c1ccn([C@@H]2O[C@H](COP(=O)(O)OP(=O)(O)OP(=O)(O)O)[C@@H](O)[C@H]2O)c(=O)[nH]1 [UTP]		412
